Measurements published in patent US20230255975A1, “METHODS FOR TREATING CANCER WITH COMBINATION THERAPIES” (Celgene Corporation, priority 2020, published 2023).

Key:
K12PE cell line = assay: Proliferation assay; type: cell-based; details: for Synergy analysis (Calcusyn) of combination with JQ1 on proliferation: K12PE cells, in combination with JQ1
Method: (§1) Proliferation and viability assays: Cell growth curves were determined by monitoring the viability of cells with Trypan blue exclusion on a Vi-Cell-XR (Becton Dickinson, Franklin Lakes, N.J., USA). Proliferation assays were performed in triplicate at least three times (n=3) using (3H)-thymidine incorporation. All data were plotted and analyzed using GraphPad Prism 7 (GraphPad Software, La Jolla, Calif., USA) software, represented as the mean with an error determined as ±s.d.
as §1, with “assay.” for “assays:”, “Cell lines” for “Proliferation assays”, “plated” for “performed”, “in 96-well round-bottom plates with the indicated drug concentrations or knockdown cells. […]” for “at least three times (n=3) using (3H)-thymidine incorporation.”

AMO1-PR cells = assay: Apoptosis by Annexin V and Topro staining; type: cell-based
Method: (§2) Flow cytometry: Annexin-V Alexa Fluor 488-conjugated antibody (Thermo Scientific, Waltham, Mass., USA) and To-Pro-3 (Thermo Scientific, Waltham, Mass., USA) were used according to the manufacturer's protocol and processed using Flow Jo software for at least three independent experiments. For cell cycle analysis, cells were stained with Propidium Iodide (PI) staining kit (Abcam, Cambridge, Mass., USA) and analysis was performed on Flow Jo V10 software. Staining of mitotic marker pHH3-Ser^10 was also performed by pHH3-Ser^10 and PI dual staining.
(§3) The PLK1 inhibitor BI2536 and Compound 5 were tested for their activity as individual agents and in combination in AMO1 parental and AMO1-PR cell lines. […] Changes in apoptosis were analyzed using the single agent treatments and their combination using Annexin V and Topro staining. […] Changes in Ikaros and pro-survival signaling in these cell lines was analyzed in response to BI2536 and Compound 5 after 24 and 72 hours of treatment (FIG. 5K).

AMO1 cells = assay: Apoptosis by Annexin V and Topro staining; type: cell-based; details: AMO-1 cells
Method: as §2, §3

[1] = tested on: AMO1-PR (pomalidomide resistant) cell line; assay: Proliferation assay; type: cell-based; details: for Synergy with trametinib on proliferation: in combination with trametinib
Method: as §1
as §1, with “assay.” for “assays:”, “Cell lines” for “Proliferation assays”, “plated” for “performed”, “in 96-well round-bottom plates with the indicated drug concentrations or knockdown cells. […]” for “at least three times (n=3) using (3H)-thymidine incorporation.”

K12PE-PR cell line = assay: Proliferation assay; type: cell-based; details: Pom resistant K12PE-PR; in combination with JQ1
Method: as §1
as §1, with “assay.” for “assays:”, “Cell lines” for “Proliferation assays”, “plated” for “performed”, “in 96-well round-bottom plates with the indicated drug concentrations or knockdown cells. […]” for “at least three times (n=3) using (3H)-thymidine incorporation.”

AMO1 cell line = assay: Proliferation assay; type: cell-based; details: AMO1; for Synergy with trametinib on proliferation: in combination with trametinib
Method: as §1
as §1, with “assay.” for “assays:”, “Cell lines” for “Proliferation assays”, “plated” for “performed”, “in 96-well round-bottom plates with the indicated drug concentrations or knockdown cells. […]” for “at least three times (n=3) using (3H)-thymidine incorporation.”

AMO1 control shRNA cells = assay: Proliferation assay in control shRNA cells; type: cell-based; details: Homo sapiens, AMO1, read-out: IC50, proliferation
Method: (§4) Proliferation and viability assay. Cell growth curves were determined by monitoring the viability of cells with Trypan blue exclusion on a Vi-Cell-XR (Becton Dickinson, Franklin Lakes, N.J., USA). Cell lines were plated in triplicate in 96-well round-bottom plates with the indicated drug concentrations or knockdown cells. Proliferation assays were performed in triplicate at least three times (n=3) using either the WST-1 tetrazolium salt (Roche Applied Science) reagent used according to the manufacturer's specifications or by (3H)-thymidine incorporation as previously described (Bjorklund et al., Blood Cancer Journal 5, e354, 2015). All data were plotted and analyzed using GraphPad Prism 7 (GraphPad Software, La Jolla, Calif., USA) software, represented as the mean with an error determined as ±s.d.
(§5) To further confirm the synergistic effect, shRNA knockdown was combined with either Compound 5 or Compound 6 treatment. Expression of control and NEK2 shRNA in AMO1 cell lines was induced, followed by exposure of the cells to increasing concentrations of Compound 5 and Compound 6. The results were measured through a proliferation assay.

[2] = tested on: AMO1 NEK2 shRNA (NEK2 knocked-down) cells; assay: Proliferation assay in NEK2 knocked-down cells; type: cell-based
Method: as §4, §5

U266 cell line = assay: Proliferation assay; type: cell-based; details: Homo sapiens, U-266, 1q amp 3×, BRD4/BET inhibition, read-out: IC50
Method: as §1

DF15/PR cell line = assay: Proliferation assay; type: cell-based; details: 1q amp 3×, BRD4/BET inhibition
Method: as §1

MM1.S cell line = assay: Proliferation assay; type: cell-based; details: Homo sapiens, 1q amp 3×, BRD4/BET inhibition
Method: as §1

KMS11 cell line = assay: Proliferation assay; type: cell-based; details: Homo sapiens, KMS-11, 1q amp 6-8×, BRD4/BET inhibition
Method: as §1

[3] = tested on: CKS1B and E2F2 in H929 cell line; assay: Immunoblot of CKS1B and E2F2 after BET inhibitors; type: cell-based; details: FIG. 10B
Source text: (§6) Effects of BRD4 inhibitors on CKS1B and E2F2 and their target genes. CKS1B and E2F2 have been enlisted as super-enhancer (SE) associated genes in MM (Loven, J., et al., Cell, 2013, 153(2): p. 320-34). In order to pharmacologically target CKS1B and E2F2, the BET inhibitors JQ1 and Compound A were utilized in MDMS8-like and H929 cell lines. […] BET inhibitors also promoted a decrease in Cereblon substrates, Ikaros, Aiolos and c-Myc levels. Further, an increase in the levels of P27 was observed, which is a negative regulator of CKS1B signaling. Immunofluorescence staining was performed to analyze the localization and expression of CKS1B and E2F2 in response to JQ1 and confirmed the decrease in their nuclear expression in MDMS8-like cells (data not shown). Since BET inhibitors mediate their changes mainly at transcript levels, transcript levels of CKS1B and E2F2 were analyzed in response to BET inhibitors. In both MDMS8-like and H929 cell lines, BET inhibitors promoted a decrease in transcript levels of CKS1B and E2F2 (FIG. 10C, FIG. 10D, FIG. 10E, and FIG. 10F). […] To ascertain the SE mediated regulation of CKS1B and E2F2, CDK7 inhibitors targeting SE-associated complexes in MM cell lines were utilized.

[4] = tested on: CKS1B and E2F2 in MDMS8-like (DF15PR) cell line; assay: Immunoblot of CKS1B and E2F2 after BET inhibitors; type: cell-based; details: FIG. 10A
Source text: as §6

Mc-CAR cell line = assay: Proliferation assay; type: cell-based; details: McCAR; 1q amp normal; BRD4/BET inhibition; read-out: IC50
Method: as §1, §4

H929 cell line = assay: Proliferation assay; type: cell-based; details: Homo sapiens, NCI-H929, 1q amp 3-4×, BRD4/BET inhibition, read-out: IC50
Method: as §1, §4

several MM cell lines = assay: Proliferation of MM cell lines with CDK7 inhibitor; type: cell-based; details: data not shown
Method: as §1
Effects of BRD4 inhibitors on CKS1B and E2F2 and their target genes. CKS1B and E2F2 have been enlisted as super-enhancer (SE) associated genes in MM (Loven, J., et al., Cell, 2013, 153(2): p. 320-34). In order to pharmacologically target CKS1B and E2F2, the BET inhibitors JQ1 and Compound A were utilized in MDMS8-like and H929 cell lines. […] BET inhibitors also promoted a decrease in Cereblon substrates, Ikaros, Aiolos and c-Myc levels. Further, an increase in the levels of P27 was observed, which is a negative regulator of CKS1B signaling. Immunofluorescence staining was performed to analyze the localization and expression of CKS1B and E2F2 in response to JQ1 and confirmed the decrease in their nuclear expression in MDMS8-like cells (data not shown). Since BET inhibitors mediate their changes mainly at transcript levels, transcript levels of CKS1B and E2F2 were analyzed in response to BET inhibitors. […]

[5] = tested on: acute myeloid leukemia (AML); details: administered alone; cited from earlier work

With `CC[C@@H]1C(=O)N(C)c2cnc(Nc3ccc(C(=O)NC4CCN(C)CC4)cc3OC)nc2N1C1CCCC1` [BI2536, (R)-4-((8-cyclopentyl-7-ethyl-5-methyl-6-oxo-5,6,7,8-tetrahydropteridin-2-yl)amino)-3-methoxy-N-(1-methylpiperidin-4-yl)benzamide] the “Activity in biallelic P53 cell line compared to P53-wild type cells” value (K12PE cell line; K12PE vs AMO1, FIG. 7B) was “higher activity”, the late apoptosis (AMO1-PR cells; vehicle 2.77%) was 7.55% and the early apoptosis (AMO1-PR cells; vehicle 3.82%) was 23.2%. For the same compound, the late apoptosis (AMO1 cells; vehicle 2.24%) was 4.25% and the early apoptosis (AMO1 cells; vehicle 2.69%) was 10.9%.
In the case of `Nc1cccc2c1CN(C1CCC(=O)NC1=O)C2=O` (centres unmarked) [Compound 2, 3-(4-amino-1-oxo-1,3 dihydro-isoindol-2-yl)-piperidine-2,6-dione], the “Synergy analysis (Calcusyn) of combination with JQ1 on proliferation” value (K12PE cell line) is reported as “synergistic”, the “Synergy with trametinib on proliferation” value [1] is reported as “strong synergy” and the “Synergy of combination with JQ1 on proliferation” value (K12PE-PR cell line) is reported as “synergistically decreased proliferation”. For the same compound, the “Synergy with trametinib on proliferation” value (AMO1 cell line) was “strong synergy”.
For `N#Cc1ccc(N2CCN(Cc3ccc(COc4cccc5c4CN([C@H]4CCC(=O)NC4=O)C5=O)cc3)CC2)c(F)c1` [Compound 6, (S)-4-(4-(4-(((2-(2,6-dioxopiperidin-3-yl)-1-oxoisoindolin-4-yl)oxy)methyl)benzyl)piperazin-1-yl)-3-fluorobenzonitrile], the “Synergy analysis (Calcusyn) of combination with JQ1 on proliferation” value (K12PE cell line) was “synergistic”, the “Synergy (Calcusyn) with NEK2 inhibitors (JH295 and rac-CCT 250863) on proliferation” value ([1]; NEK2 inhibitor 0.016-10 μM) was “strong synergy” and the “Combination analysis (Calcusyn) with YM155 on proliferation” value ([1]; in combination with YM155) was “synergistic activity”. The “Synergy with trametinib on proliferation” value [1] was “strong synergy”, the “Synergy of combination with JQ1 on proliferation” value (K12PE-PR cell line) was “synergistically decreased proliferation” and the “Synergy (Calcusyn) with NEK2 inhibitors (JH295 and rac-CCT 250863) on proliferation” value (AMO1 cell line; NEK2 inhibitor 0.016-10 μM) was “strong synergy”. The “Combination analysis (Calcusyn) with YM155 on proliferation” value (AMO1 cell line; in combination with YM155) was “synergistic activity”, the “Synergy with trametinib on proliferation” value (AMO1 cell line) was “strong synergy” and the IC50 (AMO1 control shRNA cells) was 29.6 nM. For the same compound, the IC50 ([2]; Homo sapiens, NEK2 knocked-down AMO1 cells) was 2.89 nM and the “Increase of activity by NEK2 knockdown in comparison to control shRNA cell line” value ([2]; IC50 control cells vs NEK2 knocked-down cells) was 10 fold.
`Cn1cc(-c2cc(S(C)(=O)=O)ccc2OCC2CC2)c2ccccc2c1=O` [Compound A, 4-[2-(cyclopropylmethoxy)-5-(methanesulfonyl)phenyl]-2-methylisoquinolin-1(2H)-one] showed an IC50 (U266 cell line) of 33.9 nM, an IC50 (DF15/PR cell line) of 35.9 nM and an IC50 (MM1.S cell line) of 28.2 nM. The IC50 (KMS11 cell line) was 40.3 nM, the “protein levels of CKS1B and E2F2” value [3] was “dose and time dependent decrease” and the “protein levels of CKS1B and E2F2” value [4] was “dose and time dependent decrease”. It also gave an IC50 (Mc-CAR cell line) of 93.4 nM and an IC50 (H929 cell line) of 54.1 nM.
`Cc1sc2c(c1C)C(c1ccc(Cl)cc1)=N[C@@H](CC(=O)OC(C)(C)C)c1nnc(C)n1-2` [JQ1, (S)-tert-butyl 2-(4-(4-chlorophenyl)-2,3,9-trimethyl-6H-thieno[3,2-f][1,2,4]triazolo[4,3-a][1,4]diazepin-6-yl)acetate] gave an IC50 (U266 cell line) of 14.8 nM, an IC50 (DF15/PR cell line) of 37.8 nM and an IC50 (MM1.S cell line) of 15.2 nM. The IC50 (KMS11 cell line) was 36.2 nM, the “protein levels of CKS1B and E2F2” value [3] was “dose and time dependent decrease” and the “protein levels of CKS1B and E2F2” value [4] was “dose and time dependent decrease”. It also gave an IC50 (Mc-CAR cell line) of 83.5 nM and an IC50 (H929 cell line) of 51.7 nM.
For `CN(C)C/C=C/C(=O)Nc1ccc(C(=O)Nc2cccc(Nc3ncc(Cl)c(-c4c[nH]c5ccccc45)n3)c2)cc1` [THZ1], the proliferation (several MM cell lines) was “potent decrease in proliferation”.
For “CT-011: anti-PD-1 antibody, a humanized antibody”, the “response in treating acute myeloid leukemia (AML) at relapse” value [5] is given as “failed to show response”.
